Source: BindingDB's records for doi:10.1021/acsmedchemlett.7b00169 (2017)

Test system: Enterococcus faecalis
Test: Antimicrobial activity against vancomycin-resistant Enterococcus faecalis NCTC12201 after 8 hrs

Nc1c(O)cccc1C(=O)C[C@H](N)C(=O)O
IC50: 30 µM
